Measured values as given in patent US20250288571A1 (Nested Therapeutics, Inc., priority 2024, published 2025).
Values joined by “and” are separate entries in the source; they are usually repeats but may differ in a detail not shown here. Equal values may be shown once.

Columns and labels:
pMEK [1] = test: pMEK AlphaLISA (MEK1 pS218/222), HCT116 cells, EGF stimulated; assay type: cell-based; conditions: Homo sapiens, HCT-116, 2 h compound, EGF 30 ng/ml 15 min
Description: (§1) Determination of pMEK IC50s
(§2) A549 cells were cultured in F12K/10% FBS media (ATCC CAT #21127022) and were seeded at 10000 cells/well and HCT116 cells were cultured in McCoy's 5A/10% FBS media (Gibco Cat #30-2007) were seeded at 15000 cells/well in 384 microplates (Corning CAT #3765). Cells were incubated overnight in a TC incubator. Compounds were serially diluted and added to cells for 2 h in a TC incubator. At the end of the 2 h EGF (R&D Systems 236-EG-200) was added at a final EGF concentration of 30 ng/ml and incubated for 15 minutes at 37° C. in a TC incubator. AlphaLisa (Perkin Elmer) was performed according to manufacturer's instructions (Perkin Elmer CAT #ALPHA.SF ULTRA MEK1 PS218/222). The percent (%) inhibition at each concentration of compound is calculated based on and relative to the AlphaLISA signal in the HPE and ZPE control wells contained within each assay plate. The ZPE control wells contain cells and DMSO as 0% inhibition, and the HPE control wells only contain cells and control compound (Sellekchem Staurosporin CAT #S1421) as 100% inhibition.

pMEK [2] = test: pMEK AlphaLISA (MEK1 pS218/222), A549 cells, EGF stimulated; assay type: cell-based; conditions: Homo sapiens, 2 h compound, EGF 30 ng/ml 15 min
Description: as §1, §2

HCT116 cells = test: HCT116 Cell Titer Glow assay (CTG); conditions: for IC50 / viability at 1000 µM: Homo sapiens, HCT-116, 72 h; for IC50: read-out: CTG IC50 (nM) Cell Line: HCT116.20; for viability at 1000 µM: read-out: CTG % cell viability 1000 uM HCT116.20, HCT116 cells, 72 hours, 1000 uM
IPC298 cells = test: IPC298 Cell Titer Glow assay (CTG); conditions: for IC50: Homo sapiens, IPC-298, 72 h, read-out: CTG IC50 (nM) Cell Line: IPC298.2
[3] = percent cells remaining after treatment

SMILES | IC50 (pMEK [1]) [nM] | IC50 (pMEK [2]) [nM] | IC50 (HCT116 cells) [nM] | IC50 (pMEK [1]; numeric value) [nM] | IC50 (IPC298 cells) [nM] | viability at 1000 µM (HCT116 cells; [3]) [%] | CTG % cell viability 1000 uM HCT116.20 (HCT116 cells; HCT116 cells, 72 hours, 1000 uM, percent cells remaining after treatment) [%] | CTG % cell viability 100 uM IPC298.2 (IPC298 cells; IPC298 cells, 72 hours, 100 uM, percent cells remaining after treatment)
CNS(=O)(=O)Nc1nccc(Cc2cncc(Nc3ccc(F)cc3F)c2C)c1F [Example 7, N-(2,4-difluorophenyl)-5-({3-fluoro-2-[(methylsulfamoyl)amino]pyridin-4-yl}methyl)-4-methylpyridin-3-amine] | < 10 | < 10 | – | – | – | – | – | –
CNS(=O)(=O)Nc1nccc(Cc2cncc(Nc3ccc(C(F)(F)F)cc3F)c2C)c1F [Example 8, 5-({3-fluoro-2-[(methylsulfamoyl)amino]pyridin-4-yl}methyl)-N-[2-fluoro-4-(trifluoromethyl)phenyl]-4-methylpyridin-3-amine] | < 10 | < 10 | – | – | – | – | – | –
CNS(=O)(=O)Nc1nccc(Cc2c[n+]([O-])cc(Nc3ccc(Cl)cc3F)c2C)c1F [Example 14, 3-[(4-chloro-2-fluorophenyl)amino]-5-({3-fluoro-2-[(methylsulfamoyl)amino]pyridin-4-yl}methyl)-4-methylpyridin-1-ium-1-olate] | < 10 | < 10 | – | – | – | – | – | –
CNS(=O)(=O)Nc1nccc(Oc2cncc(Nc3ccc(Cl)cc3F)c2C)c1F [Example 15, N-(4-chloro-2-fluorophenyl)-5-({3-fluoro-2-[(methylsulfamoyl)amino]pyridin-4-yl}oxy)-4-methylpyridin-3-amine] | < 10 | < 10 | 10 to 100 | – | < 10 | – | – | –
CNS(=O)(=O)Nc1nccc(C(C)c2cncc(Nc3ccc(Cl)cc3F)c2C)c1F (stereo not drawn) [Example 16] | 10 to 100 | 10 to 100 | > 1000 | – | 100 to 500 | 36.5 | – | –
Cc1c(Cc2ccnc(S(C)(=O)=O)c2F)cncc1Nc1ccc(F)cc1F [Example 17, N-(2,4-difluorophenyl)-5-[(3-fluoro-2-methanesulfonylpyridin-4-yl)methyl]-4-methylpyridin-3-amine] | > 1000 | 500 to 1000 | > 1000 | – | > 1000 | 68.2 | 83.74 | 72.73; % and 98.52%
CNS(=O)(=O)Nc1nccc(Cc2cncc(Nc3ccc(Cl)cc3F)c2)c1F [Example 18, 4-[[5-(4-chloro-2-fluoro-anilino)-3-pyridyl]methyl]-3-fluoro-N-(methylsulfamoyl)pyridin-2-amine] | < 10 | < 10 | 100 to 500 | – | 10 to 100 | – | – | –
Cc1c(Cc2ccc(S(C)(=O)=O)cc2F)cncc1Nc1ccc(Cl)cc1F [Example 20, N-(4-chloro-2-fluoro-phenyl)-5-[(2-fluoro-4-methylsulfonyl-phenyl)methyl]-4-methyl-pyridin-3-amine] | > 1000 | > 1000 | – | – | – | – | – | –
CNS(=O)(=O)Nc1nccc(Cc2cncc(Nc3ccc(Cl)cc3F)n2)c1F [Example 21, N-(4-chloro-2-fluoro-phenyl)-6-[[3-fluoro-2-(methylsulfamoylamino)-4-pyridyl]methyl]pyrazin-2-amine] | 10 to 100 | 10 to 100 | > 1000 | – | 500 to 1000 | – | – | –
Cc1c(Cc2ccnc([S+](C)[O-])c2F)cncc1Nc1ccc(Br)cc1F (stereo not drawn) [Example 22] | < 10 | < 10 | 100 to 500 | – | 10 to 100 | – | – | –
CNS(=O)(=O)Nc1nccc(Cc2cncc(Nc3ccc(OC)cc3F)c2C)c1F [Example 23, 5-({3-fluoro-2-[(methylsulfamoyl)amino]pyridin-4-yl}methyl)-N-(2-fluoro-4-methoxyphenyl)-4-methylpyridin-3-amine] | < 10 | < 10 | 10 to 100 | – | – | – | – | –
CNS(=O)(=O)Nc1nccc(Cc2cncc(OC)c2C)c1F [Example 24, ({3-fluoro-4-[(5-methoxy-4-methylpyridin-3-yl)methyl]pyridin-2-yl}sulfamoyl)(methyl)amine] | – | 10 to 100 | 100 to 500 | > 100 | < 10 | – | – | –
CNS(=O)(=O)Nc1ccc(Cc2cncc(Nc3ccc(Cl)cc3F)c2C)cc1OC [Example 25, N-(4-chloro-2-fluoro-phenyl)-5-[[3-methoxy-4-(methylsulfamoylamino)phenyl]methyl]-4-methyl-pyridin-3-amine] | > 1000 | > 1000 | – | – | – | – | – | –
CNS(=O)(=O)Nc1nccc(Cc2cncc(Nc3ccc(Cl)cc3F)c2F)c1F [Example 26, 4-[[5-(4-chloro-2-fluoro-anilino)-4-fluoro-3-pyridyl]methyl]-3-fluoro-N-(methylsulfamoyl)pyridin-2-amine] | < 10 | < 10 | 100 to 500 | – | 10 to 100 | – | – | –
CNS(=O)(=O)Nc1nccc(Cc2cncc(Oc3ccc(Cl)cn3)c2C)c1F [Example 27, {[4-({5-[(5-chloropyridin-2-yl)oxy]-4-methylpyridin-3-yl}methyl)-3-fluoropyridin-2-yl]sulfamoyl}(methyl)amine] | < 10 | < 10 | 500 to 1000 | – | 10 to 100 | – | – | –
Cc1c(Cc2ccnc(S(C)(=O)=O)c2F)cncc1Nc1ccc(Cl)cc1F [Example 28, N-(4-chloro-2-fluorophenyl)-5-[(3-fluoro-2-methanesulfonylpyridin-4-yl)methyl]-4-methylpyridin-3-amine] | 10 to 100 | 10 to 100 | > 1000 | – | 10 to 100 | – | – | –

Second part, led by results:

IC50 (pMEK [1]) [nM] | IC50 (pMEK [2]) [nM] | IC50 (HCT116 cells) [nM] | IC50 (pMEK [1]; numeric value) [nM] | SMILES | IC50 (IPC298 cells) [nM] | viability at 1000 µM (HCT116 cells; [3]) [%] | CTG % cell viability 1000 uM HCT116.20 (HCT116 cells; HCT116 cells, 72 hours, 1000 uM, percent cells remaining after treatment) [%] | CTG % cell viability 100 uM IPC298.2 (IPC298 cells; IPC298 cells, 72 hours, 100 uM, percent cells remaining after treatment)
10 to 100 | 10 to 100 | – | – | CNS(=O)(=O)Nc1nccc(Cc2cncc(Oc3ncc(Cl)cc3F)c2C)c1F [Example 29, {[4-({5-[(5-chloro-3-fluoropyridin-2-yl)oxy]-4-methylpyridin-3-yl}methyl)-3-fluoropyridin-2-yl]sulfamoyl}(methyl)amine] | – | – | – | –
10 to 100 | 10 to 100 | – | – | C=CCOc1cncc(Cc2ccnc(NS(=O)(=O)NC)c2F)c1C [Example 30, 4-[(5-allyloxy-4-methyl-3-pyridyl)methyl]-3-fluoro-N-(methylsulfamoyl)pyridin-2-amine] | – | – | – | –
> 1000 | > 1000 | – | – | CNS(=O)(=O)Nc1nccc(Cc2cncc(-c3ncccc3F)c2C)c1F [Example 31, 3-fluoro-4-[[5-(3-fluoro-2-pyridyl)-4-methyl-3-pyridyl]methyl]-N-(methylsulfamoyl)pyridin-2-amine] | – | – | – | –
> 1000 | > 1000 | – | – | CNS(=O)(=O)Nc1nccc(Cc2cncc(-c3ncc(Cl)cc3F)c2C)c1F [Example 32, 4-[[5-(5-chloro-3-fluoro-2-pyridyl)-4-methyl-3-pyridyl]methyl]-3-fluoro-N-(methylsulfamoyl)pyridin-2-amine] | – | – | – | –
> 1000 | 500 to 1000 | – | – | CNS(=O)(=O)Nc1nccc(Cc2cncc(OCc3ncccc3F)c2C)c1F [Example 34, {[3-fluoro-4-({5-[(3-fluoropyridin-2-yl)methoxy]-4-methylpyridin-3-yl}methyl)pyridin-2-yl]sulfamoyl}(methyl)amine] | – | – | – | –
< 10 | < 10 | < 10 | – | CNS(=O)(=O)Nc1nccc(Cc2cncc(Nc3ccc(Cl)cc3OC)c2C)c1F [Example 35, 4-[[5-(4-chloro-2-methoxy-anilino)-4-methyl-3-pyridyl]methyl]-3-fluoro-N-(methylsulfamoyl)pyridin-2-amine] | < 10 | – | – | –
< 10 | < 10 | – | – | CNS(=O)(=O)Nc1nccc(Cc2cncc(N(C)c3ccc(Cl)cc3F)c2C)c1F [Example 36, N-(4-chloro-2-fluorophenyl)-5-({3-fluoro-2-[(methylsulfamoyl)amino]pyridin-4-yl}methyl)-N,4-dimethylpyridin-3-amine] | – | – | – | –
– | – | < 10 | – | [2H]C([2H])([2H])c1ccc(Nc2cncc(Cc3ccnc(NS(=O)(=O)NC)c3F)c2C)c(F)c1 [Example 104, 3-fluoro-4-[[5-[2-fluoro-4-(trideuteriomethyl)anilino]-4-methyl-3-pyridyl]methyl]-N-(methylsulfamoyl)pyridin-2-amine] | < 10 | – | – | –
